# Patent US20130317056A1, “NEURONAL NICOTINIC AGONISTS AND METHODS OF CORRELATING COMT SNPS” (ABBVIE INC., priority 2012, published 2013)
# Columns and labels:
# Assay type in all cases: in vivo, human
# [1] = system: subjects with schizophrenia who were current smokers; test: MCCB composite score in current smokers by COMT allele type, Clinical Study A; conditions: for MCCB Change from Baseline to Final Mean(SD) / MCCB Between-group Difference (Pooled SD) / MCCB Effect Size (Raw mean): current smokers
# Protocol: (§1) Analysis of the data by cigarette smoking status (current smoker or current nonsmoker) indicated a significant […] interaction (p=0.015).
# (§2) A blood sample for genotyping was collected from each subject who consented. Genomic DNA was isolated from whole blood using the FlexiGene DNA AGF3000 kit (Qiagen, Valencia, Calif.), on an AutogenFlex 3000 (AutoGen, Holliston, Mass.). Genotypes were determined using the Pyrosequencing detection method (USA—Qiagen, Inc., Valencia, Calif.). Individuals performing the genotyping were blinded to clinical trial data. The significance of the minor allele against the major allele is shown in column marked “Treatment genotype p-value” (Tables 6 and 7).
# The SNPs analyzed were RS6269, RS4633, RS4680, and RS4818. The treatment effects across all 4 SNPs in the minor allele indicated a dose-response relationship. The magnitude of the effect for the Compound A 25 mg treatment group was as low as +1.8 points on the MCCB composite score for SNP4680 (corresponding to a Coen's d effect size of 0.43) to as high as +3.7 points for SNP RS4818 (corresponding to a Coen's d effect size of 0.93). […] In fact, the treatment response for both Compound A active treatment groups was generally less than that of placebo for subjects containing the major COMT allele.
# [2] = system: subjects with schizophrenia who were not current smokers; test: MCCB composite score in non-smokers by COMT SNP, Clinical Study A; conditions: for MCCB composite score, change score: subjects who were not current smokers; for MCCB Change from Baseline to Final Mean(SD) / MCCB Between-group Difference (Pooled SD) / MCCB Effect Size (Raw mean): non-smokers; for treatment effect on MCCB: nonsmokers
# Protocol: as §1, §2
# A similar dose-response trend was observed across the four COMT SNPs in the population of nonsmokers as well (data not shown).
# [3] = system: clinically stable subjects with schizophrenia; test: CANTAB cognition battery, Clinical Study A; conditions: 10 mg and 25 mg dose groups
# From the text: The primary endpoint was the MCCB composite score, and the primary endpoint analysis was the change on the MCCB composite score from baseline to endpoint versus placebo. Other secondary measures included the MCCB domains, the NSA-16, the CANTAB cognition battery (measured at different time points from the MCCB), and the UPSA-2. The Positive and Negative Syndrome Scale (PANSS) was included to document stability in schizophrenia symptomatology.
# The Cambridge Neuropsychological Test Automated Battery (CANTAB) is a computer-based cognitive assessment system consisting of a battery of neuropsychological tests, administered to subjects using a touch screen computer. […] The CANTAB computerized system will be employed to explore the effects of Compound A on cognition. The tests assess the following cognitive domains: executive function, spatial memory, attention and episodic memory. The CANTAB battery took approximately 40 minutes to administer and was given on Days 14, 28, 56, 84 and 98.
# [4] = RS4633 C/C (major allele), 25 mg
# [5] = RS4633 C/C (major allele), 25 mg vs placebo
# [6] = RS4633 T/T or C/T (minor allele), 10 mg
# [7] = RS4633 T/T or C/T (minor allele), 10 mg vs placebo
# [8] = RS4633 T/T or C/T (minor allele), 25 mg
# [9] = RS4633 T/T or C/T (minor allele), 25 mg vs placebo
# [10] = RS4680 A/A or G/A (minor allele), 10 mg
# [11] = RS4680 A/A or G/A (minor allele), 10 mg vs placebo
# [12] = RS4680 A/A or G/A (minor allele), 25 mg
# [13] = RS4680 A/A or G/A (minor allele), 25 mg vs placebo
# [14] = RS4680 G/G (major allele), 25 mg
# [15] = RS4680 G/G (major allele), 25 mg vs placebo
# [16] = RS4818 C/C (major allele), 25 mg
# [17] = RS4818 C/C (major allele), 25 mg vs placebo
# [18] = RS4818 G/C or G/G (minor allele), 10 mg
# [19] = RS4818 G/C or G/G (minor allele), 10 mg vs placebo
# [20] = RS4818 G/C or G/G (minor allele), 25 mg
# [21] = RS4818 G/C or G/G (minor allele), 25 mg vs placebo
# [22] = RS6269 A/A (major allele), 25 mg
# [23] = RS6269 A/A (major allele), 25 mg vs placebo
# [24] = RS6269 G/G or A/G (minor allele), 10 mg
# [25] = RS6269 G/G or A/G (minor allele), 10 mg vs placebo
# [26] = RS6269 G/G or A/G (minor allele), 25 mg
# [27] = RS6269 G/G or A/G (minor allele), 25 mg vs placebo
smiles,measurement,setting,value
"c1ccc(-c2nnc(O[C@@H]3C4CC5C[C@H]3C[N@](C5)C4)s2)cc1 [Compound A, (4s)-4-(5-phenyl-1,3,4-thiadiazol-2-yloxy)-1-azatricyclo[3.3.1.1^3,7]decane]",treatment effect on MCCB composite score,[1]; current smokers who contained the major allele for the 4 COMT SNPs,No treatment effect
same,MCCB Change from Baseline to Final Mean(SD),[1]; [4],0.4(3.9)
same,MCCB Between-group Difference (Pooled SD),[1]; [5],−1.1(5.0)
same,MCCB Change from Baseline to Final Mean(SD),[1]; [6],−0.3(4.4)
same,MCCB Between-group Difference (Pooled SD),[1]; [7],−1.2(4.2)
same,MCCB Change from Baseline to Final Mean(SD),[1]; [8],2.9(4.8)
same,MCCB Between-group Difference (Pooled SD),[1]; [9],2.0(4.5)
same,MCCB Effect Size (Raw mean),[1]; [9],0.44
same,MCCB Change from Baseline to Final Mean(SD),[1]; [10],0.1(4.6)
same,MCCB Between-group Difference (Pooled SD),[1]; [11],−1.0(4.1)
same,MCCB Change from Baseline to Final Mean(SD),[1]; [12],2.9(4.8)
same,MCCB Effect Size (Raw mean),[1]; [13],0.43
same,MCCB Change from Baseline to Final Mean(SD),[1]; [14],0.4(3.9)
same,MCCB Between-group Difference (Pooled SD),[1]; [15],−0.9(5.3)
same,MCCB Change from Baseline to Final Mean(SD),[1]; [16],1.2(4.6)
same,MCCB Between-group Difference (Pooled SD),[1]; [17],−1.0(4.9)
same,MCCB Change from Baseline to Final Mean(SD),[1]; [18],1.7(3.7)
same,MCCB Between-group Difference (Pooled SD),[1]; [19],2.1(3.6)
same,MCCB Effect Size (Raw mean),[1]; [19],0.58
same,MCCB Change from Baseline to Final Mean(SD),[1]; [20],3.4(4.4)
same,MCCB Effect Size (Raw mean),[1]; [21],0.93
same,MCCB Change from Baseline to Final Mean(SD),[1]; [22],0.8(4.6)
same,MCCB Between-group Difference (Pooled SD),[1]; [23],−1.0(3.9)
same,MCCB Change from Baseline to Final Mean(SD),[1]; [24],2.9(4.2)
same,MCCB Between-group Difference (Pooled SD),[1]; [25],1.8(5.0)
same,MCCB Effect Size (Raw mean),[1]; [25],0.36
same,MCCB Change from Baseline to Final Mean(SD),[1]; [26],3.1(4.4)
same,MCCB Between-group Difference (Pooled SD),[1]; [27],2.0(5.1)
same,MCCB Effect Size (Raw mean),[1]; [27],0.40
same,"MCCB composite score, change score","[2]; 10 mg, p=0.021",+2.1
same,"MCCB composite score, change score","[2]; 25 mg, p=0.001",+4.5
same,MCCB Change from Baseline to Final Mean(SD),[2]; [4],7.4(6.1)
same,MCCB Between-group Difference (Pooled SD),[2]; [5],8.4(5.1)
same,MCCB Effect Size (Raw mean),[2]; [5],1.65
same,MCCB Change from Baseline to Final Mean(SD),[2]; [6],2.4(7.3)
same,MCCB Between-group Difference (Pooled SD),[2]; [7],2.7(6.1)
same,MCCB Effect Size (Raw mean),[2]; [7],0.44
same,MCCB Change from Baseline to Final Mean(SD),[2]; [8],2.4(5.4)
same,MCCB Between-group Difference (Pooled SD),[2]; [9],2.7(4.9)
same,MCCB Effect Size (Raw mean),[2]; [9],0.55
same,MCCB Change from Baseline to Final Mean(SD),[2]; [10],2.2(7.5)
same,MCCB Between-group Difference (Pooled SD),[2]; [11],2.4(6.4)
same,MCCB Effect Size (Raw mean),[2]; [11],0.38
same,MCCB Change from Baseline to Final Mean(SD),[2]; [12],2.4(5.4)
same,MCCB Between-group Difference (Pooled SD),[2]; [13],2.6(4.7)
same,MCCB Effect Size (Raw mean),[2]; [13],0.55
same,MCCB Change from Baseline to Final Mean(SD),[2]; [14],7.4(6.1)
same,MCCB Between-group Difference (Pooled SD),[2]; [15],8.4(5.1)
same,MCCB Effect Size (Raw mean),[2]; [15],1.65
same,MCCB Change from Baseline to Final Mean(SD),[2]; [16],1.3(6.7)
same,MCCB Between-group Difference (Pooled SD),[2]; [17],1.8(5.3)
same,MCCB Effect Size (Raw mean),[2]; [17],0.34
same,MCCB Change from Baseline to Final Mean(SD),[2]; [18],1.2(3.8)
same,MCCB Between-group Difference (Pooled SD),[2]; [19],1.8(3.9)
same,MCCB Effect Size (Raw mean),[2]; [19],0.46
same,MCCB Change from Baseline to Final Mean(SD),[2]; [20],5.8(5.3)
same,MCCB Between-group Difference (Pooled SD),[2]; [21],6.4(4.8)
same,MCCB Effect Size (Raw mean),[2]; [21],1.33
same,MCCB Change from Baseline to Final Mean(SD),[2]; [22],1.9(6.3)
same,MCCB Between-group Difference (Pooled SD),[2]; [23],2.2(4.9)
same,MCCB Effect Size (Raw mean),[2]; [23],0.45
same,MCCB Change from Baseline to Final Mean(SD),[2]; [24],1.0(3.5)
same,MCCB Between-group Difference (Pooled SD),[2]; [25],1.9(3.9)
same,MCCB Effect Size (Raw mean),[2]; [25],0.49
same,MCCB Change from Baseline to Final Mean(SD),[2]; [26],5.9(5.6)
same,MCCB Between-group Difference (Pooled SD),[2]; [27],6.8(5.2)
same,MCCB Effect Size (Raw mean),[2]; [27],1.31
same,treatment effect on MCCB,[2]; minor allele of the four COMT SNPs,highly robust
same,treatment effect on MCCB,[2]; subjects containing the major allele,meaningful effect
same,results on the CANTAB battery relative to MCCB results,[3],consistent
